What was measured:
[1] = tested on: barnyardgrass; experiment: Test A preemergence; assay type: in vivo, Echinochloa crus-galli; settings: 0 to 100 scale (0 no effect, 100 complete control)
Procedure, shortened: (§1)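 Plant seeds in loam soil blended with sand, then apply test chemical preemergence as a directed soil spray; in parallel, spray potted seedlings (one- to two-leaf, 2 to 10 cm) postemergence. Both treatments use a non-phytotoxic solvent mixture with surfactant.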

[2] = tested on: ducksalad; experiment: Test B flooded paddy test; assay type: in vivo, Heteranthera limosa; settings: 250 g ai/ha, applied to paddy water at 2-leaf stage, visual rating after 13 to 15 d, scale 0 (no effect) to 100 (complete control)
Procedure, shortened: (§2)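 Pots were flooded to 3 cm above the soil at treatment, and compounds were applied directly into the paddy water. That depth was held throughout. After 13 to 15 d in a greenhouse, plants were rated visually against untreated controls.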

[3] = tested on: ryegrass, Italian; experiment: Test C postemergence; assay type: in vivo, Lolium multiflorum
Procedure, shortened: (§3)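 Seeds were planted in loam soil plus sand and sprayed preemergence. In parallel, potted plants in a peat-based medium were sprayed postemergence at 2 to 18 cm (1- to 4-leaf stage). Compounds were formulated in non-phytotoxic solvent with surfactant.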

[4] = tested on: barnyardgrass; experiment: Test C postemergence; assay type: in vivo, Echinochloa crus-galli
Procedure, shortened: as §3

[5] = tested on: sedge, umbrella; experiment: Test B flooded paddy test; assay type: in vivo, Cyperus difformis; settings: 250 g ai/ha, applied to paddy water at 2-leaf stage, visual rating after 13 to 15 d, scale 0 (no effect) to 100 (complete control)
Procedure, shortened: as §2

[6] = tested on: blackgrass; experiment: Test C postemergence; assay type: in vivo, Alopecurus myosuroides
Procedure, shortened: as §3

[7] = tested on: wheat; experiment: Test A postemergence; assay type: in vivo, Triticum aestivum; settings: 0 to 100 scale (0 no effect, 100 complete control), approx. 10 d
Procedure, shortened: as §1

[8] = tested on: corn; experiment: Test C postemergence; assay type: in vivo, Zea mays
Procedure, shortened: as §3

[9] = tested on: soybean; experiment: Test C postemergence; assay type: in vivo, Glycine max
Procedure, shortened: as §3

[10] = tested on: pigweed; experiment: Test A preemergence; assay type: in vivo, Amaranthus retroflexus; settings: 0 to 100 scale (0 no effect, 100 complete control)
Procedure, shortened: as §1

[11] = tested on: galium; experiment: Test C postemergence; assay type: in vivo, Galium aparine
Procedure, shortened: as §3

[12] = tested on: waterhemp; experiment: Test C postemergence; assay type: in vivo, Amaranthus rudis
Procedure, shortened: as §3

[13] = tested on: foxtail, giant; experiment: Test A postemergence; assay type: in vivo, Setaria faberii; settings: 0 to 100 scale (0 no effect, 100 complete control), approx. 10 d
Procedure, shortened: as §1

SMILES	Plant response rating, Barnyardgrass ([1]; 125 g ai/ha)	Plant response rating, Ducksalad, Flood [2]	Plant response rating (scale of 0 to 100 where 0 is no effect and 100 is complete control) ([3]; 31 g ai/ha)	Plant response rating (scale of 0 to 100 where 0 is no effect and 100 is complete control) ([3]; 62 g ai/ha)	Plant response rating (scale of 0 to 100 where 0 is no effect and 100 is complete control) ([3]; 125 g ai/ha)	Plant response rating (scale of 0 to 100 where 0 is no effect and 100 is complete control) ([4]; 31 g ai/ha)	Plant response rating (scale of 0 to 100 where 0 is no effect and 100 is complete control) ([4]; 62 g ai/ha)	Plant response rating (scale of 0 to 100 where 0 is no effect and 100 is complete control) ([4]; 125 g ai/ha)	Plant response rating, Sedge, Umbrella, Flood [5]	Plant response rating (scale of 0 to 100 where 0 is no effect and 100 is complete control) ([6]; 31 g ai/ha)	Plant response rating (scale of 0 to 100 where 0 is no effect and 100 is complete control) ([6]; 62 g ai/ha)	Plant response rating (scale of 0 to 100 where 0 is no effect and 100 is complete control) ([6]; 125 g ai/ha)	Plant response rating, Wheat ([7]; 125 g ai/ha)	Plant response rating (scale of 0 to 100 where 0 is no effect and 100 is complete control) ([8]; 31 g ai/ha)	Plant response rating (scale of 0 to 100 where 0 is no effect and 100 is complete control) ([8]; 62 g ai/ha)	Plant response rating (scale of 0 to 100 where 0 is no effect and 100 is complete control) ([8]; 125 g ai/ha)	Plant response rating (scale of 0 to 100 where 0 is no effect and 100 is complete control) ([9]; 31 g ai/ha)	Plant response rating (scale of 0 to 100 where 0 is no effect and 100 is complete control) ([9]; 62 g ai/ha)	Plant response rating (scale of 0 to 100 where 0 is no effect and 100 is complete control) ([9]; 125 g ai/ha)	Plant response rating, Pigweed ([10]; 125 g ai/ha)	further results
CCOc1nc(-c2ccc(Cl)cc2)nn1Cc1ccnc(C(F)(F)F)c1 [Compound 26]	90	70	35	35	40	30	45	55	90	35	40	40	20	25	30	35	70	65	70	100	Plant response rating, Barnyardgrass ([1]; 31 g ai/ha): 60; Plant response rating (scale of 0 to 100 where 0 is no effect and 100 is complete control) ([3]; 16 g ai/ha): 20; Plant response rating (scale of 0 to 100 where 0 is no effect and 100 is complete control) ([4]; 16 g ai/ha): 25; Plant response rating (scale of 0 to 100 where 0 is no effect and 100 is complete control) ([6]; 16 g ai/ha): 15; Plant response rating, Wheat ([7]; 31 g ai/ha): 20; Plant response rating (scale of 0 to 100 where 0 is no effect and 100 is complete control) ([8]; 16 g ai/ha): 25; Plant response rating (scale of 0 to 100 where 0 is no effect and 100 is complete control) ([9]; 16 g ai/ha): 35; Plant response rating, Pigweed ([10]; 31 g ai/ha): 90; Plant response rating (scale of 0 to 100 where 0 is no effect and 100 is complete control) ([11]; 16 g ai/ha): 80; Plant response rating (scale of 0 to 100 where 0 is no effect and 100 is complete control) ([11]; 31 g ai/ha): 90; Plant response rating (scale of 0 to 100 where 0 is no effect and 100 is complete control) ([11]; 62 g ai/ha): 90; Plant response rating (scale of 0 to 100 where 0 is no effect and 100 is complete control) ([11]; 125 g ai/ha): 90; Plant response rating (scale of 0 to 100 where 0 is no effect and 100 is complete control) ([12]; 16 g ai/ha): 95; Plant response rating (scale of 0 to 100 where 0 is no effect and 100 is complete control) ([12]; 31 g ai/ha): 98; Plant response rating (scale of 0 to 100 where 0 is no effect and 100 is complete control) ([12]; 62 g ai/ha): 98; Plant response rating (scale of 0 to 100 where 0 is no effect and 100 is complete control) ([12]; 125 g ai/ha): 98; Plant response rating, Foxtail, Giant ([13]; 31 g ai/ha): 70; Plant response rating, Foxtail, Giant ([13]; 125 g ai/ha): 90
COc1nc(-c2ccccc2)nn1Cc1ccnc(C(F)(F)F)c1 [Compound 32]	20	30	0	0	0	10	15	20	75	5	5	5	0	10	20	25	20	25	30	100	Plant response rating, Barnyardgrass ([1]; 500 g ai/ha, approx. 10 d): 80; Plant response rating (scale of 0 to 100 where 0 is no effect and 100 is complete control) ([3]; 250 g ai/ha): 10; Plant response rating (scale of 0 to 100 where 0 is no effect and 100 is complete control) ([4]; 250 g ai/ha): 20; Plant response rating (scale of 0 to 100 where 0 is no effect and 100 is complete control) ([6]; 250 g ai/ha): 15; Plant response rating, Wheat ([7]; 500 g ai/ha): 20; Plant response rating (scale of 0 to 100 where 0 is no effect and 100 is complete control) ([8]; 250 g ai/ha): 35; Plant response rating (scale of 0 to 100 where 0 is no effect and 100 is complete control) ([9]; 250 g ai/ha): 35; Plant response rating, Pigweed ([10]; 500 g ai/ha, approx. 10 d): 100; Plant response rating (scale of 0 to 100 where 0 is no effect and 100 is complete control) ([11]; 31 g ai/ha): 20; Plant response rating (scale of 0 to 100 where 0 is no effect and 100 is complete control) ([11]; 62 g ai/ha): 45; Plant response rating (scale of 0 to 100 where 0 is no effect and 100 is complete control) ([11]; 125 g ai/ha): 60; Plant response rating (scale of 0 to 100 where 0 is no effect and 100 is complete control) ([11]; 250 g ai/ha): 75; Plant response rating (scale of 0 to 100 where 0 is no effect and 100 is complete control) ([12]; 31 g ai/ha): 85; Plant response rating (scale of 0 to 100 where 0 is no effect and 100 is complete control) ([12]; 62 g ai/ha): 90; Plant response rating (scale of 0 to 100 where 0 is no effect and 100 is complete control) ([12]; 125 g ai/ha): 90; Plant response rating (scale of 0 to 100 where 0 is no effect and 100 is complete control) ([12]; 250 g ai/ha): 98; Plant response rating, Foxtail, Giant ([13]; 125 g ai/ha): 60; Plant response rating, Foxtail, Giant ([13]; 500 g ai/ha): 90
CCCOc1nc(-c2ccccc2)nn1Cc1ccnc(C(F)(F)F)c1 [Compound 33]	50	30	0	5	5	10	20	20	85	5	5	10	0	25	30	25	25	35	55	90	Plant response rating, Barnyardgrass ([1]; 500 g ai/ha, approx. 10 d): 80; Plant response rating (scale of 0 to 100 where 0 is no effect and 100 is complete control) ([3]; 250 g ai/ha): 15; Plant response rating (scale of 0 to 100 where 0 is no effect and 100 is complete control) ([4]; 250 g ai/ha): 25; Plant response rating (scale of 0 to 100 where 0 is no effect and 100 is complete control) ([6]; 250 g ai/ha): 10; Plant response rating, Wheat ([7]; 500 g ai/ha): 30; Plant response rating (scale of 0 to 100 where 0 is no effect and 100 is complete control) ([8]; 250 g ai/ha): 25; Plant response rating (scale of 0 to 100 where 0 is no effect and 100 is complete control) ([9]; 250 g ai/ha): 65; Plant response rating, Pigweed ([10]; 500 g ai/ha, approx. 10 d): 90; Plant response rating (scale of 0 to 100 where 0 is no effect and 100 is complete control) ([11]; 31 g ai/ha): 55; Plant response rating (scale of 0 to 100 where 0 is no effect and 100 is complete control) ([11]; 62 g ai/ha): 60; Plant response rating (scale of 0 to 100 where 0 is no effect and 100 is complete control) ([11]; 125 g ai/ha): 75; Plant response rating (scale of 0 to 100 where 0 is no effect and 100 is complete control) ([11]; 250 g ai/ha): 80; Plant response rating (scale of 0 to 100 where 0 is no effect and 100 is complete control) ([12]; 31 g ai/ha): 80; Plant response rating (scale of 0 to 100 where 0 is no effect and 100 is complete control) ([12]; 62 g ai/ha): 95; Plant response rating (scale of 0 to 100 where 0 is no effect and 100 is complete control) ([12]; 125 g ai/ha): 95; Plant response rating (scale of 0 to 100 where 0 is no effect and 100 is complete control) ([12]; 250 g ai/ha): 95; Plant response rating, Foxtail, Giant ([13]; 125 g ai/ha): 40; Plant response rating, Foxtail, Giant ([13]; 500 g ai/ha): 90

Reference: patent publication US10681909B2, “Herbicidal triazoles” (FMC Corporation, priority 2014, dated 2020)
